Like-named read-outs stand apart in the source and are kept apart here. Where a SMILES comes first, the peptide text is derived from it. Bridges are numbered along the chain shown (N, C = ends). [ ]: non-standard residue; d: D form. The star is where a group is joined. Docosanoyl = CCCCCCCCCCCCCCCCCCCCCC(=O)*; Oic = O=C(O)[C@@H]1C[C@@H]2CCCC[C@@H]2N1; Arachidoyl = CCCCCCCCCCCCCCCCCCCC(=O)*; Stearoyl = CCCCCCCCCCCCCCCCCC(=O)*; Palmitoyl = CCCCCCCCCCCCCCCC(=O)*; Tic = O=C(O)[C@@H]1Cc2ccccc2CN1; dTic = O=C(O)[C@H]1Cc2ccccc2CN1; Dab = NCC[C@H](N)C(=O)O
Key:
[1] = tested on: WI38 (non-transformed fibroblasts) cells, wtp53; format: cell-based; settings: 48 h
Experimental: (§1) Cells were cultured in 96 wells plates with 2500-4000 cells/well. Serial dilutions of different peptides were added and the plates incubated for additional 48 h at 37° C. Then medium was removed and cell viability was determined by staining the cells with crystal violet (0.05%) in methanol/PBS (1:5, v/v), for 10 min, followed by 3 washes with PBS. 10% acetic acid was added to each well for 10 min. OD was determined at 595 nm.
(§2) The IC50 tables presented in FIGS. 17-20 are from several representative experiments performed on cell lines expressing several p53 hotspot mutations, as well as control non-transformed cells: […]

[2] = tested on: MIA PaCa-2 (pancreatic carcinoma) cells, p53R248W; format: cell-based; settings: 48 h
Experimental: as §1, §2

[3] = tested on: RXF-393 (renal carcinoma) cells, p53R175H; format: cell-based, human; settings: for increase in efficacy relative to pCAP-553: FIG. 17, effect of fatty acid length; for IC50: 48 h
Experimental: as §1
(§3) The IC50 tables presented in FIGS. 17-20 are from several representative experiments performed on cell lines expressing several p53 hotspot mutations, as well as control non-transformed cells:
Fatty acid position. Lead peptides were modified with N-terminal myristic acid to enable the penetration of peptides across the cell membrane. Although myristic acid is usually the default choice for cell permeability, additional options were explored of longer fatty acids and to examine the effect on peptide efficacy in terms of cancer cell killing. A standard crystal violet viability test was performed on human renal carcinoma RXF-393 cells, comparing the original pCAP-553, which has myristic acid (C14), with 4 derivative peptides modified with longer fatty acid chains: palmitic (C16), stearic (C18), […] (C20) and behenic (C22).

[4] = tested on: SW-480 (colon carcinoma) cells, p53R273H, P309S; format: cell-based; settings: 48 h
Experimental: as §1, §2

[5] = tested on: PC9 (lung carcinoma) cells, p53R248Q; format: cell-based; settings: 48 h
Experimental: as §1, §2

[6] = tested on: panel of cell lines expressing mutp53; format: cell-based; settings: for IC50: 48 h
Experimental: as §1, §3
Proline residue position—Based on alanine scanning and molecular dynamics analyses, it is believed that the proline residue at the 6th position from the N-terminal is critical for the peptide's 3D structure and provides some rigidity required for peptide binding and activity. Therefore, it was hypothesized that a change in orientation or tetrahedral angle might increase the affinity of the peptide for p53. Six new peptides were synthesized replacing this proline residue with proline analogs (pCAPs 708-712, and pCAP-716, SEQ ID NOS: 6-10 and 14, respectively). This set of peptides was tested for activity on a panel of cell lines expressing mutp53, and compared it to pCAP-674 (SEQ ID NO: 27) and to the scrambled sequence peptides pCAP-721 (SEQ ID NO: 19) and pCAP-722 (SEQ ID NO: 20).

[7] = tested on: PANC1 (pancreatic carcinoma) cells, p53R273H; format: cell-based; settings: 48 h
Experimental: as §1, §2

IC50 [2] [nM] | IC50 [4] [nM] | IC50 [5] [nM] | IC50 [3] [nM] | Compound | IC50 [1] [nM] | also measured
1000 |  |  |  | CCCCCCCCCCCCCC(=O)N[C@@H](CCCNC(=N)N)C(=O)N[C@@H](CCCNC(=N)N)C(=O)N[C@@H](Cc1c[nH]cn1)C(=O)N[C@@H](CO)C(=O)N[C@H](C(=O)N1CCC[C@H]1C(=O)N[C@@H](Cc1c[nH]cn1)C(=O)N1CCC[C@H]1C(=O)N[C@@H](CC(=O)O)C(=O)O)[C@@H](C)O [pCAP-250, myr-RRHSTPHPD] | > 40000 | 
 | 600 | 210 |  | CCCCCCCCCCCCCCCCCC(=O)N[C@@H](CCCNC(=N)N)C(=O)N[C@@H](CCCNC(=N)N)C(=O)N[C@@H](Cc1c[nH]cn1)C(=O)N[C@@H](CO)C(=O)N[C@@H](C(=O)N1CCC[C@H]1C(=O)N[C@@H](CCN)C(=O)N1CCC[C@H]1C(=O)N[C@@H](CC(=O)O)C(N)=O)C(C)C [pCAP-674, str-RRHSvP(Dab)PD-NH2] (Stearoyl-RRHS[dV]P[Dab]PD-NH2) | 36000 | increase in efficacy relative to pCAP-553 [3]: four-fold increase in efficacy
 | 800 | 260 | 400 | CCCCCCCCCCCCCCCCCCCC(=O)N[C@@H](CCCNC(=N)N)C(=O)N[C@@H](CCCNC(=N)N)C(=O)N[C@@H](Cc1c[nH]cn1)C(=O)N[C@@H](CO)C(=O)N[C@@H](C(=O)N1CCC[C@H]1C(=O)N[C@@H](CCN)C(=O)N1CCC[C@H]1C(=O)N[C@@H](CC(=O)O)C(N)=O)C(C)C [pCAP-706, arc-RRHSvP(Dab)PD-NH2] (Arachidoyl-RRHS[dV]P[Dab]PD-NH2) | 15000 | 
 | 3000 | 1500 | 1500 | CCCCCCCCCCCCCCCCCCCCCC(=O)N[C@@H](CCCNC(=N)N)C(=O)N[C@@H](CCCNC(=N)N)C(=O)N[C@@H](Cc1c[nH]cn1)C(=O)N[C@@H](CO)C(=O)N[C@@H](C(=O)N1CCC[C@H]1C(=O)N[C@@H](CCN)C(=O)N1CCC[C@H]1C(=O)N[C@@H](CC(=O)O)C(N)=O)C(C)C [pCAP-707, Beh-RRHSvP(Dab)PD-NH2] (Docosanoyl-RRHS[dV]P[Dab]PD-NH2) | 12000 | 
500 |  |  |  | CCCCCCCCCCCCCCCCCC(=O)N[C@@H](CCCNC(=N)N)C(=O)N[C@@H](CCCNC(=N)N)C(=O)N[C@@H](Cc1c[nH]cn1)C(=O)N[C@@H](CO)C(=O)N[C@@H](C(=O)N1CCC[C@@H]1C(=O)N[C@@H](CCN)C(=O)N1CCC[C@H]1C(=O)N[C@@H](CC(=O)O)C(N)=O)C(C)C [pCAP-708, str-RRHSvp(Dab)PD-NH2] (Stearoyl-RRHS[dV][dP][Dab]PD-NH2) | 32000 | activity in viability assays compared with other peptides (in words) [6]: consistently modestly improved activity over pCAP-674; IC50 [6]: 120 to 1300 nM; activity in viability assays compared with other peptides (in words) ([6]; listed as 708): highest activity
 | 3000 | 1600 | 2600 | CCCCCCCCCCCCCCCCCC(=O)N[C@@H](CCCNC(=N)N)C(=O)N[C@@H](CCCNC(=N)N)C(=O)N[C@@H](Cc1c[nH]cn1)C(=O)N[C@@H](CO)C(=O)N[C@@H](C(=O)N1[C@H](C(=O)N[C@@H](CCN)C(=O)N2CCC[C@H]2C(=O)N[C@@H](CC(=O)O)C(N)=O)C[C@@H]2CCCC[C@@H]21)C(C)C [pCAP-711, str-RRHSv(Oic)(Dab)PD] (Stearoyl-RRHS[dV][Oic][Dab]PD-NH2; N-terminus and C-terminus assumed) | > 40000 | 
1000 | 1500 | 1200 | 600 | CCCCCCCCCCCCCCCCCC(=O)N[C@@H](CCCNC(=N)N)C(=O)N[C@@H](CCCNC(=N)N)C(=O)N[C@@H](Cc1c[nH]cn1)C(=O)N[C@@H](CO)C(=O)N[C@@H](C(=O)N1Cc2ccccc2C[C@H]1C(=O)N[C@@H](CCN)C(=O)N1CCC[C@H]1C(=O)N[C@@H](CC(=O)O)C(N)=O)C(C)C [pCAP-712, str-RRHSv(Tic)(Dab)PD-NH2] (Stearoyl-RRHS[dV][Tic][Dab]PD-NH2) |  | activity in viability assays compared with other peptides (in words) [6]: highest activity
300 |  |  |  | CCCCCCCCCCCCCCCCCC(=O)N[C@@H](CCCNC(=N)N)C(=O)N[C@@H](CCCNC(=N)N)C(=O)N[C@@H](Cc1c[nH]cn1)C(=O)N[C@@H](CO)C(=O)N[C@H]1CCCCNC(=O)[C@H](CC(=O)O)NC(=O)[C@@H]2CCCN2C(=O)[C@H](CCN)NC(=O)[C@@H]2CCCN2C1=O [pCAP-713, str-RRHSKP(Dab)PD-Cyc] (Stearoyl-RRHSKP[Dab]PD; lactam 5-C) |  | IC50 [7]: 1050 nM; activity in viability assays compared with other peptides (in words) [6]: highest activity; IC50 [6]: 100 to 1000 nM; increase in activity over pCAP-674 ([6]; FIGS. 18-20): 1.5-3 folds; increase in activity over the original pCAP-553 ([6]; FIGS. 18-20): 4-10 folds
 | 1090 | 800 | 570 | CCCCCCCCCCCCCCCCCC(=O)N[C@@H](CCCNC(=N)N)C(=O)N[C@@H](CCCNC(=N)N)C(=O)N[C@H]1CCCCNC(=O)[C@H](CC(=O)O)NC(=O)[C@@H]2CCCN2C(=O)[C@H](CCN)NC(=O)[C@@H]2CCCN2C(=O)[C@@H](C(C)C)NC(=O)[C@H](CO)NC1=O [pCAP-714, str-RRKSvP(Dab)PD-Cyc] (Stearoyl-RRKS[dV]P[Dab]PD; lactam 3-C) | > 40000 | 
 | 540 | 250 | 480 | CCCCCCCCCCCCCCCCCC(=O)N[C@@H](CCCNC(=N)N)C(=O)N[C@@H](CCCNC(=N)N)C(=O)N[C@H]1CCCCNC(=O)[C@H](CC(=O)O)NC(=O)[C@@H]2CCCN2C(=O)[C@H](CCN)NC(=O)[C@@H]2CCCN2C(=O)[C@@H](C(C)C)NC(=O)[C@H](CO)NC(=O)[C@H](Cc2c[nH]cn2)NC1=O [pCAP-715, str-RRKHSvP(Dab)PD-Cyc] (Stearoyl-RRKHS[dV]P[Dab]PD; lactam 3-C) | > 40000 | 
 |  | 720 | 370 | CCCCCCCCCCCCCCCCCC(=O)N[C@@H](CCCNC(=N)N)C(=O)N[C@@H](CCCNC(=N)N)C(=O)N[C@@H](Cc1c[nH]cn1)C(=O)N[C@@H](CO)C(=O)N[C@@H](C(=O)N1CCC[C@H]1C(=O)N[C@@H](CCN)C(=O)N1CCC[C@H]1C(=O)N[C@@H](CC(=O)O)C(N)=O)C(C)C [pCAP-718, str-RRHSvP(Dab)PD-NH2 ion ex] (Stearoyl-RRHS[dV]P[Dab]PD-NH2) | > 40000 | IC50 [7]: 2210 nM
 |  | 570 | 460 | CCCCCCCCCCCCCCCCCC(=O)N[C@@H](CCCNC(=N)N)C(=O)N[C@@H](CCCNC(=N)N)C(=O)N[C@@H](Cc1c[nH]cn1)C(=O)N[C@@H](CO)C(=O)N[C@H](CCCCN)C(=O)N1Cc2ccccc2C[C@@H]1C(=O)N[C@@H](CCN)C(=O)N1CCC[C@H]1C(=O)N[C@@H](CC(=O)O)C(N)=O [pCAP-719, str-RRHSk(tic)(Dab)PD-NH2] (Stearoyl-RRHS[dK][dTic][Dab]PD-NH2) | 29000 | IC50 [7]: 2180 nM
300 | 1200 | 800 | 300 | CCCCCCCCCCCCCCCCCC(=O)N[C@@H](CCCNC(=N)N)C(=O)N[C@@H](CCCNC(=N)N)C(=O)N[C@@H](Cc1c[nH]cn1)C(=O)N[C@@H](CO)C(=O)N[C@@H](C(=O)N1CCC[C@@H]1C(=O)N[C@@H](CCN)C(=O)N1CCC[C@H]1C(=O)N[C@H](CC(=O)O)C(=O)NCC(=O)N[C@@H](CCCNC(=N)N)C(=O)O)C(C)C [pCAP-721, str-RRHSvp(Dab)PdGR] (Stearoyl-RRHS[dV][dP][Dab]P[dD]GR-OH; C-terminus assumed) |  | activity in viability assays compared with other peptides (in words) [6]: comparable activity to pCAP-717
 |  | > 40000 | > 40000 | CCCCCCCCCCCCCCCCCC(=O)N[C@@H](CCCNC(=N)N)C(=O)N[C@@H](CC(=O)O)C(=O)N1CCC[C@H]1C(=O)N[C@@H](Cc1c[nH]cn1)C(=O)N[C@@H](C(=O)N[C@@H](CO)C(=O)N1CCC[C@H]1C(=O)N[C@@H](CCCNC(=N)N)C(=O)N[C@@H](CCN)C(N)=O)C(C)C [pCAP-723, str-RDPHvSPR(Dab)-NH2, reference compound] (Stearoyl-RDPH[dV]SPR[Dab]-NH2) | > 40000 | IC50 [7]: > 40000 nM
 |  |  |  | pam-RRHSvP(Dab)PD-NH2 (Palmitoyl-RRHS[dV]P[Dab]PD-NH2) [pCAP-673, pam—Palmitic] |  | increase in efficacy relative to pCAP-553 [3]: two-fold increase in efficacy
